Among the test systems are MCF7 breast; NCI-H226 lung; MDA-MB-435; HS 578T breast; DU-145 prostate; MDA-MB-231 breast; BT-549 breast.
Holding throughout (assay): NCI anticancer screen, dose series, 48 h

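Briefly, cells in 96-well plates were exposed to five compound concentrations for 48 h, and endpoints were estimated by linear interpolation. GI50 marks 50% less growth. TGI is the concentration that stops growth completely.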

Regarding `CCOC(=O)C1CCN(S(=O)(=O)/N=C2/NC(=O)NC2=C(Cl)Cl)CC1`, the GI50 in the assay with MCF7 breast is 0.33 µM; in the assay on NCI-H226 lung it was 2.86 µM; in the assay with MDA-MB-435 it was 1.93 µM; in the assay with HS 578T breast it was 9.14 µM; in the assay on DU-145 prostate, 2.37 µM; in the assay with MDA-MB-231 breast it was 1.94 µM. For the same compound, the GI50 in the assay on BT-549 breast was 1.68 µM. The TGI turned out to be 22 µM in the assay with MCF7 breast; 9.94 µM in the assay on NCI-H226 lung; 4.66 µM in the assay on MDA-MB-435; 65.3 µM with HS 578T breast; 15.1 µM in the assay on DU-145 prostate; 3.54 µM in the assay with MDA-MB-231 breast. For the same compound, the TGI with BT-549 breast was 3.65 µM.

Turning to `COc1ccc(C(=O)c2cc(C)c(OC)c(C)c2)cc1OC(=O)CCl`, the GI50 is below 0.01 µM with MCF7 breast; 4.27 µM in the assay on NCI-H226 lung; below 0.01 µM in the assay on MDA-MB-435; below 0.01 µM in the assay with HS 578T breast; below 0.01 µM in the assay with DU-145 prostate; below 0.0112 µM in the assay on MDA-MB-231 breast. In addition, the GI50 in the assay with BT-549 breast was below 0.01 µM. The TGI with MCF7 breast is above 100 µM; with NCI-H226 lung it was above 100 µM; in the assay with MDA-MB-435, below 0.01 µM; in the assay on HS 578T breast it was 98.5 µM; with DU-145 prostate, above 100 µM; in the assay on MDA-MB-231 breast, above 100 µM. Besides, the TGI with BT-549 breast worked out at 40.5 µM.

For `Cc1cc(NC(=S)SCc2ccc(F)cc2)c([N+](=O)[O-])cc1C`, the TGI in the assay with MCF7 breast is above 100 µM; with NCI-H226 lung it was 38.7 µM; in the assay on MDA-MB-435, 73.2 µM; in the assay with HS 578T breast, 46.6 µM; with DU-145 prostate, above 100 µM; in the assay on MDA-MB-231 breast, 34.6 µM. In the assay on BT-549 breast, the TGI came out at 59.1 µM.

Consider `CC(C)c1ccc(-c2cc(-c3cn[nH]c3-c3ccccn3)ccn2)cc1`, for which the GI50 with MCF7 breast was above 18.9 µM; in the assay with NCI-H226 lung, 12.1 µM; in the assay with MDA-MB-435, 9.42 µM; in the assay with HS 578T breast, above 16.2 µM; in the assay with DU-145 prostate, 16 µM; in the assay on MDA-MB-231 breast it was above 16.5 µM. For the same compound, the GI50 in the assay on BT-549 breast is 10.6 µM. For the same compound, the TGI in the assay on MCF7 breast, in the assay on NCI-H226 lung, with MDA-MB-435, with HS 578T breast, with DU-145 prostate and in the assay with MDA-MB-231 breast was above 25 µM throughout. For the same compound, the TGI in the assay with BT-549 breast was above 25 µM.

For the compound `O=C1/C(=C(/c2ccccc2)N2CCOCC2)Cc2ccccc21`, the GI50 in the assay on MCF7 breast was 1.54 µM; in the assay with NCI-H226 lung it was 3.39 µM; with MDA-MB-435, 2.17 µM; in the assay on HS 578T breast it was 2.63 µM; with DU-145 prostate it was 0.948 µM; in the assay with MDA-MB-231 breast it was 2.3 µM. Moreover, in the assay on BT-549 breast, the GI50 is 1.26 µM. The TGI was 7.38 µM in the assay with MCF7 breast; 8.99 µM in the assay with NCI-H226 lung; 6.87 µM in the assay on MDA-MB-435; 12.9 µM in the assay on HS 578T breast; 2.29 µM in the assay with DU-145 prostate; 5.48 µM in the assay with MDA-MB-231 breast. Moreover, in the assay with BT-549 breast, the TGI amounted to 3.2 µM.

`NS(=O)(=O)c1ccc(-c2ccc3c(NC(=O)C4CC4)n[nH]c3c2)cc1`: the GI50 in the assay on MCF7 breast, in the assay with NCI-H226 lung, with MDA-MB-435, with HS 578T breast, in the assay with DU-145 prostate and with MDA-MB-231 breast was above 25 µM in each case. The GI50 with BT-549 breast was above 25 µM. Also, the TGI in the assay on MCF7 breast, in the assay on NCI-H226 lung, in the assay on MDA-MB-435, in the assay on HS 578T breast, with DU-145 prostate and in the assay with MDA-MB-231 breast was above 25 µM in each case. In addition, the TGI in the assay with BT-549 breast was above 25 µM.

As to `COc1ccc(-c2[nH]c3ccc(OC)cc3c2/C=C(\C#N)S(=O)(=O)c2ccccc2)cc1`, the GI50 with MCF7 breast was 0.774 µM; with NCI-H226 lung it was 3.51 µM; with MDA-MB-435, 0.272 µM; in the assay on HS 578T breast it was 0.531 µM; in the assay on DU-145 prostate it was 0.785 µM; with MDA-MB-231 breast, 1.32 µM. Moreover, the GI50 with BT-549 breast was 4.51 µM. Also, the TGI with MCF7 breast is above 100 µM; in the assay on NCI-H226 lung, above 100 µM; in the assay on MDA-MB-435, above 100 µM; in the assay with HS 578T breast, 7.25 µM; in the assay on DU-145 prostate, above 31.4 µM; with MDA-MB-231 breast, above 30.7 µM. Moreover, the TGI in the assay on BT-549 breast is above 100 µM.

For the compound `CN1CCN(CCCNc2nc3ccc(Oc4ccc(NC(=O)Nc5cc(C(F)(F)F)ccc5F)cc4)cc3[nH]2)CC1`, the GI50 in the assay with MCF7 breast is 4.05 µM; in the assay with NCI-H226 lung it was 5.55 µM; in the assay with MDA-MB-435, 4.1 µM; in the assay on HS 578T breast it was 3.67 µM; with DU-145 prostate it was 5.17 µM; in the assay with MDA-MB-231 breast, 3.97 µM. In addition, the GI50 in the assay on BT-549 breast is 4.23 µM. Besides, the TGI is 7.61 µM with MCF7 breast; 16.8 µM in the assay on NCI-H226 lung; 7.78 µM with MDA-MB-435; 8.26 µM with HS 578T breast; 12.5 µM with DU-145 prostate; 7.65 µM in the assay with MDA-MB-231 breast. The compound also registered a TGI in the assay with BT-549 breast of 8.04 µM.

Source of the values: PubChem BioAssay (NCI).
